Measurements: BindingDB's records for doi:10.1002/cbic.201600513 (University of Florida, 2017)

Tests used:
Carbonic anhydrase 2 = Carbonic anhydrase 2 (Homo sapiens, UniProt P00918); assay: CA Inhibition Assay
Source text: (§1) CA-catalyzed CO2 hydration activity methods were published previously by Cornelio et al. as part of a larger series of benzenesulfonamide-based inhibitors with aryl substitutions in the para position of the benzene ring.

Carbonic anhydrase 12 = Carbonic anhydrase 12 (Homo sapiens, UniProt O43570); assay: CA Inhibition Assay
Chain of Carbonic anhydrase 12 (O43570 whole entry): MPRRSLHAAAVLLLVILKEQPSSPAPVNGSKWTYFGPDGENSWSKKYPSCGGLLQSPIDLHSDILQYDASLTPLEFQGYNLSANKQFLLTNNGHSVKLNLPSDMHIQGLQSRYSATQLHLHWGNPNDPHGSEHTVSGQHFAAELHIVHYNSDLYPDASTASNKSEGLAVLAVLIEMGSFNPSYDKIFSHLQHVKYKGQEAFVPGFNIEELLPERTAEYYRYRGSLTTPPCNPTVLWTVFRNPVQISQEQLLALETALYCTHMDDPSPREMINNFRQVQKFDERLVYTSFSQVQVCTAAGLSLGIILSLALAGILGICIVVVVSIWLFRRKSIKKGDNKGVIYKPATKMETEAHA
Source text: as §1

| Ki (Carbonic anhydrase 2) [pM] | Ki (Carbonic anhydrase 12) [pM] | Compound |
| --- | --- | --- |
| 2000 | 600 | NS(=O)(=O)c1ccc(-c2cccc(C=O)c2)cc1 [4-(3-formylphenyl)-benzenesulfonamide (4e)] |
| 800 | – | NS(=O)(=O)c1ccc(-c2ccccc2)cc1 [4-(phenyl)-bezenesulfonamide (4a)] |
